Series [1] has as its target T1, Steroid hormone receptor ERR1 (Homo sapiens, UniProt P11474).
T1 sequence (P11474 whole entry): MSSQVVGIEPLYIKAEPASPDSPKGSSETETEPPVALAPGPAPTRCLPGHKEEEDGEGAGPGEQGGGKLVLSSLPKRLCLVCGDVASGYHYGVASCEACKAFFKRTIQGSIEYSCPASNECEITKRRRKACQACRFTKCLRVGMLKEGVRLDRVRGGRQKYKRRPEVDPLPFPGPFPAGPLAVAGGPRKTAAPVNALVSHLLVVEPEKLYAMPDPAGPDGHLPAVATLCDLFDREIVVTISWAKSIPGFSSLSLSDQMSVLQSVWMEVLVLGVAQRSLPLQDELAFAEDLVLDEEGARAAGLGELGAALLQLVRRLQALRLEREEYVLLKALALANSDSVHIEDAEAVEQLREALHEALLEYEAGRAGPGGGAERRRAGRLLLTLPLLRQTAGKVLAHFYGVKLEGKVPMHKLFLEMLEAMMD
Put plainly: Inhibition of fluorescien-conjugated coactivator PGC1a binding to ERRalpha (unknown origin) after 1 hr by TR-FRET assay. Background: Time-resolved FRET reads energy transfer from a long-lived donor to a nearby acceptor.

Series [2] has as its target T2, CYP1A2 (Homo sapiens, UniProt P05177).
T2 sequence (P05177 whole entry): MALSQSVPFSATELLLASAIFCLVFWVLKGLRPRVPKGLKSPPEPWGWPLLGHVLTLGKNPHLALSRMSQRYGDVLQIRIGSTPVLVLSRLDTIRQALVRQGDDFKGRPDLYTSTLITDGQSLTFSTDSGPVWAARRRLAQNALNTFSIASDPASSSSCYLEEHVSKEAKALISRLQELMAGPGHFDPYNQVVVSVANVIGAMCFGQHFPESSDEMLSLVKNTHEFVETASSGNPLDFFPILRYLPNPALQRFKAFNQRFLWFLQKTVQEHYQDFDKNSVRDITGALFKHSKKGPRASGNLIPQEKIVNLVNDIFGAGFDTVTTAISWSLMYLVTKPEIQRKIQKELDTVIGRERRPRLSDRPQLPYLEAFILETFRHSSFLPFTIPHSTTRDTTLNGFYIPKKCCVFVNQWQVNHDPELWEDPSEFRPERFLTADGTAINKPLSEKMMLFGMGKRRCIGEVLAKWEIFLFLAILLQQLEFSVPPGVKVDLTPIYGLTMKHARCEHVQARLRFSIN
The experiment in a line: Inhibition of CYP1A2 in human liver microsomes assessed as remaining activity by measuring phenacetin O-deethylase activity at 10 uM pre-incubated for 5 mins followed by NADPH regenerating system addition by LC-MS/MS analysis relative to control. Particulars: probe phenacetin (O-deethylation), read-out: Activity. In kind it is ADME. Background: Liver microsomes are a subcellular fraction often used to study metabolism.

Series [3] has as its target T3, Steroid hormone receptor ERR2 (Homo sapiens, UniProt O95718).
T3 sequence (O95718 whole entry): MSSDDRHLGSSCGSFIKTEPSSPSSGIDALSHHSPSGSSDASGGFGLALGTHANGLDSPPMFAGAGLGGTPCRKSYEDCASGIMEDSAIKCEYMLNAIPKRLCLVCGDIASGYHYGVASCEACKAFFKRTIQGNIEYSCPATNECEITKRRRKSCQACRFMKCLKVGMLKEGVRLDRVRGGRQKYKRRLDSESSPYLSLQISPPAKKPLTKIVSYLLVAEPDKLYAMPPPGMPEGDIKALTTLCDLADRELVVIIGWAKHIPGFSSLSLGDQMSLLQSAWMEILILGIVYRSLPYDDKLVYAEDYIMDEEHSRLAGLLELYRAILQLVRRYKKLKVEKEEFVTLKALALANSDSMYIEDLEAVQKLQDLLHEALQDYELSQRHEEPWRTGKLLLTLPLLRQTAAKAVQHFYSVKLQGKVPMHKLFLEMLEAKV
Put plainly: Inhibition of fluorescien-conjugated coactivator PGC1a binding to ERRbeta (unknown origin) after 1 hr by TR-FRET assay.

Series [4] concerns the target T4, Estrogen receptor (Homo sapiens, UniProt P03372).
T4 sequence (P03372 whole entry): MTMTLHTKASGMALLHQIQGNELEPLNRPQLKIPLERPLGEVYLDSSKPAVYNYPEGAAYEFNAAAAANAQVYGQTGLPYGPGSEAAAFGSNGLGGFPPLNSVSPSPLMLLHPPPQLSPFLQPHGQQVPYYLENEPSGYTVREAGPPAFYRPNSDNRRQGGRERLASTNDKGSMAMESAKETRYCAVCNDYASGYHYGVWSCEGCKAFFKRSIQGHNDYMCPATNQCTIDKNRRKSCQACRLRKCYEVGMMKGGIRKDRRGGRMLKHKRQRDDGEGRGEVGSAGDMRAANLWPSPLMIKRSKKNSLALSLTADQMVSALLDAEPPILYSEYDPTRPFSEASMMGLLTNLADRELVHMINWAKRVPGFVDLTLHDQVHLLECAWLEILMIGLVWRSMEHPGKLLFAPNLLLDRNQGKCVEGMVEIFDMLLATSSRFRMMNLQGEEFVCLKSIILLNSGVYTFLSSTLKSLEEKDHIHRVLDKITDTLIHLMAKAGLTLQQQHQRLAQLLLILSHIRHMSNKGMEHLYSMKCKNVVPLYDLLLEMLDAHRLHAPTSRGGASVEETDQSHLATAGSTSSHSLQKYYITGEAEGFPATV
Description: Inhibition of fluorescien-conjugated coactivator PGC1a binding to ERalpha (unknown origin) after 1 hr by TR-FRET assay

Series [5] addresses CYP2C9 (Homo sapiens, UniProt P11712). Put plainly: Inhibition of CYP2C9 in human liver microsomes assessed as remaining activity by measuring tolbutamide 4-hydroxylase activity at 10 uM pre-incubated for 5 mins followed by NADPH regenerating system addition by LC-MS/MS analysis relative to control. In kind it is ADME. The following applies: probe tolbutamide (4-hydroxylation), read-out: Activity.

Series [6] concerns the target CYP2C19 (Homo sapiens, UniProt P33261). The experiment in a line: Inhibition of CYP2C19 in human liver microsomes assessed as remaining activity by measuring S-mephenytoin 4-hydroxylase activity at 10 uM pre-incubated for 5 mins followed by NADPH regenerating system addition by LC-MS/MS analysis relative to control. In kind it is ADME. The following applies: probe S-mephenytoin (4-hydroxylation), read-out: Activity.

For series [7], the target named is CYP2D6 (Homo sapiens, UniProt P10635). Put plainly: Inhibition of CYP2D6 in human liver microsomes assessed as remaining activity by measuring dextromethorphan O-demethylase activity at 10 uM pre-incubated for 5 mins followed by NADPH regenerating system addition by LC-MS/MS analysis relative to control. In kind it is ADME. Particulars: probe dextromethorphan (O-demethylation), read-out: Activity.
Sequence of CYP2D6 (P10635 whole entry): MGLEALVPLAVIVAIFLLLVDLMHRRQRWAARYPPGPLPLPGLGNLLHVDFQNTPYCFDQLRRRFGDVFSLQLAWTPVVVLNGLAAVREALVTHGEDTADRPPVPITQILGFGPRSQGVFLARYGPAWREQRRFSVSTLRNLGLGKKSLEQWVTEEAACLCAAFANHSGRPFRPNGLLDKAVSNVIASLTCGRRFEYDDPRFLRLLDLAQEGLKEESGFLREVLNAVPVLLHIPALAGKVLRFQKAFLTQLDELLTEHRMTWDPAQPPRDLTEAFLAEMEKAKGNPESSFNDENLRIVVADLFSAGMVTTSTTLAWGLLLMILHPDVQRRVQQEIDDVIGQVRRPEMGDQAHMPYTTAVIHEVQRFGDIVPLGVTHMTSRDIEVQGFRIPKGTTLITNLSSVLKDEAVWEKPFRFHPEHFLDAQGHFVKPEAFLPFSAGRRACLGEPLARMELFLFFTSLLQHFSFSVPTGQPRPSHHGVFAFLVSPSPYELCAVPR

Series [8] addresses CYP3A4 (Homo sapiens, UniProt P08684). The experiment in a line: Inhibition of CYP3A4 in human liver microsomes assessed as remaining activity by measuring midazolam 1'-hydroxylase activity at 10 uM pre-incubated for 5 mins followed by NADPH regenerating system addition by LC-MS/MS analysis relative to control. In kind it is ADME. Particulars: probe midazolam (1'-hydroxylation), read-out: Activity.

Series [9] is described as follows: Metabolic stability in dog liver microsomes assessed as compound remaining at 1 uM after 30 mins in presence of NADPH by LC-MS/MS analysis. In kind it is ADME, Canis lupus familiaris. Particulars: read-out: Stability.
Series [10] in a line: Permeability of the compound in PBS at pH 7.4 at 10 uM after 5 hrs by LC-MS/MS analysis. In kind it is ADME. The following applies: not told, read-out: permeability.
In series [11] the target is T5, Estrogen-related receptor gamma (Homo sapiens, UniProt P62508).
T5 sequence (P62508 whole entry): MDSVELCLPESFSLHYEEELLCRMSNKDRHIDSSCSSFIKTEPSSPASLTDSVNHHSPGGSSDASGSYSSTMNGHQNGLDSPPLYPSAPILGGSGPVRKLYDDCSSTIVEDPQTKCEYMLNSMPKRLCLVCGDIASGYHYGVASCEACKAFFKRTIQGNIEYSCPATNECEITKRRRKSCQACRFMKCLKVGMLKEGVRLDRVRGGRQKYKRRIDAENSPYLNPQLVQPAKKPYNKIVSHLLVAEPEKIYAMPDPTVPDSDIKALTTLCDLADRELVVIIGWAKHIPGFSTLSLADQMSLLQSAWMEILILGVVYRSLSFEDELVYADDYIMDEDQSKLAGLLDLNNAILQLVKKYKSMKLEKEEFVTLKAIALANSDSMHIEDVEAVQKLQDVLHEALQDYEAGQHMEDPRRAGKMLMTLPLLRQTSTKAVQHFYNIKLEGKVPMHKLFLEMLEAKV
Description: Inhibition of fluorescien-conjugated coactivator PGC1a binding to GST-tagged human ERRgamma LBD after 1 hr by TR-FRET assay

Series [12] deals with T5, Estrogen-related receptor gamma. This is another data set of the same source.
Description: Inverse agonist activity at ERRgamma (unknown origin) expressed in human AD293 cells after 24 hrs by beta-galactosidase/luciferase reporter gene assay
A short description of series [13]: in vitro. The following applies: human, liver microsomes.
Description: Metabolic stability in human liver microsomes assessed as compound remaining at 1 uM after 30 mins in presence of NADPH by LC-MS/MS analysis
A short description of series [14]: in vitro. The following applies: rat, liver microsomes.
Description: Metabolic stability in rat liver microsomes assessed as compound remaining at 1 uM after 30 mins in presence of NADPH by LC-MS/MS analysis
Series [15] is described as follows: in vitro. The following applies: mouse, liver microsomes.
Description: Metabolic stability in mouse liver microsomes assessed as compound remaining at 1 uM after 30 mins in presence of NADPH by LC-MS/MS analysis

Sequence of CYP2C19 (P33261 whole entry): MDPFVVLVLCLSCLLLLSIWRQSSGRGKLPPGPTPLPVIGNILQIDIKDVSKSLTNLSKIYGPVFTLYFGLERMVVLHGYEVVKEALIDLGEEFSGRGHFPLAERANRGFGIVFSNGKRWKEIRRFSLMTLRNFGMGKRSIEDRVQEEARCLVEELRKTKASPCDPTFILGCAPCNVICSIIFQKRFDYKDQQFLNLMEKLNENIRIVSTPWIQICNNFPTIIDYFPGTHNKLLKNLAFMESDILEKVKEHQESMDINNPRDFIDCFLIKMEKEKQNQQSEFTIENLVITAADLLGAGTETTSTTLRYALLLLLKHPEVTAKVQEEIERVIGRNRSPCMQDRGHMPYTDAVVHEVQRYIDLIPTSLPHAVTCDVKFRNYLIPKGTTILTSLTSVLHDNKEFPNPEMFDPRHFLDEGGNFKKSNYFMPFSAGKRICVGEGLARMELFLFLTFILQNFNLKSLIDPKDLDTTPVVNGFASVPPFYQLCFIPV
Sequence of CYP3A4 (P08684 whole entry): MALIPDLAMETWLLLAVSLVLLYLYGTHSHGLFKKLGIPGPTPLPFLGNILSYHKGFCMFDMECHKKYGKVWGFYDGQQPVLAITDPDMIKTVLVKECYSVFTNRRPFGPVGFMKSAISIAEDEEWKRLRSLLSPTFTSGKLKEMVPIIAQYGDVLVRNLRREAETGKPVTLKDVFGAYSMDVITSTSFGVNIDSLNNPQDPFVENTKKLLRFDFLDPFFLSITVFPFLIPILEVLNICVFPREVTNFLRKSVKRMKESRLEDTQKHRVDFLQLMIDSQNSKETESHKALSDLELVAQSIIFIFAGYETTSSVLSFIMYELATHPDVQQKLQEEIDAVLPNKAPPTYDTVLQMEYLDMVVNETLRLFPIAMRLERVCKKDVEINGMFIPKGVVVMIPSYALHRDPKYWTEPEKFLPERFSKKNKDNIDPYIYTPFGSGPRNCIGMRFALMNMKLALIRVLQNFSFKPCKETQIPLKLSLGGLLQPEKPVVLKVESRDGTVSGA
Sequence of CYP2C9 (P11712 whole entry): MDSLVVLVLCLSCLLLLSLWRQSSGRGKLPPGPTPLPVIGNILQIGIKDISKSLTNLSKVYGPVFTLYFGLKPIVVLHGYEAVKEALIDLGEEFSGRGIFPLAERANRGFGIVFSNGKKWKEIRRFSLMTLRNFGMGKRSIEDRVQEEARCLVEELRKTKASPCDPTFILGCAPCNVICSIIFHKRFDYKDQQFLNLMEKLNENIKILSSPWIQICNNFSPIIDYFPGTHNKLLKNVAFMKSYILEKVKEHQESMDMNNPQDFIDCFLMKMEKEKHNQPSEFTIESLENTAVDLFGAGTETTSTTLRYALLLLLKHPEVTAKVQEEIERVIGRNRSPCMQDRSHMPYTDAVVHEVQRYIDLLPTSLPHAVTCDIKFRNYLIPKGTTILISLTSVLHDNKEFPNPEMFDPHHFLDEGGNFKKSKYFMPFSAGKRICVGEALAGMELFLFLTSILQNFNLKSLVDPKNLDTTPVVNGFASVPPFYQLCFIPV

Regarding `CCN(CC)CCOc1ccc(/C(=C(/CCCO)c2ccccc2)c2ccc(O)cc2)cc1.Cl`, the IC50 was greater than 10 µM in series [1]; greater than 10 µM in [3]; 0.875 µM in series [4]; 180 nM in [11]; 79 nM in series [12]. The activity at 10 µM in [2] came to 82%; in series [5], 90%; in series [6], 70%; in series [7], 98%; in series [8], 93%. Besides, the remaining at 0.5 h, 1 µM is 22% in [9], 18% in series [13], 32% in series [14] and 10% in series [15]. In addition, in [10], the Papp at 5 h, 10 µM was 1.02 ×10⁻⁶ cm/s.
As for `CNCCOc1ccc(/C(=C(/CCCO)c2ccccc2)c2ccc(O)cc2)cc1.Cl`, the IC50 in series [1] was greater than 10 µM; in [3], greater than 10 µM; in [4], 3.34 µM; in [11], 190 nM; in [12] it was 187 nM. In addition, the activity at 10 µM in series [2] worked out at 91%; in [5], 44%; in series [6], 76%; in series [7] it was 89%; in series [8] it was 85%. Also, the remaining at 0.5 h, 1 µM was 76% in series [9], 83% in series [13], 79% in series [14] and 20% in series [15]. In addition, the Papp at 5 h, 10 µM in series [10] is 0.03 ×10⁻⁶ cm/s.
Consider `Cc1ccc(/C(=C(\CCCO)c2ccccc2)c2ccc(OCCN(C)C)cc2)cc1.Cl`, for which the IC50 in series [1] is greater than 10 µM; in series [3] it was greater than 10 µM; in series [4], greater than 10 µM; in series [11] it was 270 nM; in series [12] it was 669 nM. Besides, the activity at 10 µM in series [2] was greater than 100%; in series [5], 60%; in [6], greater than 100%; in series [7] it was greater than 100%; in series [8], greater than 100%. Besides, the remaining at 0.5 h, 1 µM was found to be 13% in [9], 59% in series [13], 25% in series [14] and 16% in series [15]. Also, the Papp at 5 h, 10 µM in [10] is 9.94 ×10⁻⁶ cm/s.
`CN(C)CCOc1ccc(/C(=C(/CCCO)c2ccccc2)c2ccc(Br)cc2)cc1.Cl`: the IC50 was greater than 10 µM in series [1]; 6.95 µM in series [3]; greater than 10 µM in series [4]; 117 nM in series [11]; 719 nM in series [12]. The activity at 10 µM in series [2] was greater than 100%; in series [5], 86%; in series [6], 61%; in [7] it was 99%; in [8] it was 88%. For the same compound, the remaining at 0.5 h, 1 µM in series [9] is 5.8%; in series [13], 42%; in [14], 30%; in [15], 35%. In addition, the Papp at 5 h, 10 µM in [10] is 6.52 ×10⁻⁶ cm/s.

A word on the IC50: it is the concentration that inhibits the measured activity by half.

Values taken from ChEMBL document CHEMBL3856205, “Synthesis and biological evaluation of novel 4-hydroxytamoxifen analogs as estrogen-related receptor gamma inverse agonists” (Eur J Med Chem, 2016).
